Drawing on patent US20190119282A1, “IMIDAZOPYRIDAZINES USEFUL AS INHIBITORS OF THE PAR-2 SIGNALING PATHWAY” (Vertex Pharmaceuticals Incorporated, priority 2013, published 2019), this text covers IC50 for 14 compounds.

Where only a bound is given, the exact number is not on record here.

Assay [1] deals with T1, PAR2 (HT-29 cells, SLIGKV activation) (Homo sapiens, UniProt P55085).
T1 construct: host or cells: HT-29 cells
T1 sequence (P55085 26-397): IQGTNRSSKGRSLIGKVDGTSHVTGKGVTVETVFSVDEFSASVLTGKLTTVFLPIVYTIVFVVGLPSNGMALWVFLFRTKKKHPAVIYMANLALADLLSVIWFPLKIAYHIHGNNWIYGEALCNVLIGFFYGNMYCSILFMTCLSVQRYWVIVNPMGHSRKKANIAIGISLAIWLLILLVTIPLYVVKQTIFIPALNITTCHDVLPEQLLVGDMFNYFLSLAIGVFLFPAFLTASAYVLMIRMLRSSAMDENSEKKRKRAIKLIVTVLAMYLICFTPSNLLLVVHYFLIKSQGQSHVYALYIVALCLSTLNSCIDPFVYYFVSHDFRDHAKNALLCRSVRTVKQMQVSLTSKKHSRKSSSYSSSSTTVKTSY
Briefly: Ca FLIPR TETRA assay, ANTAGONIST mode, stimulation with 8 μM SLIGKV. Particulars: HT-29 cells, antagonist mode, stimulation with 8 μM SLIGKV. Type of assay: cell-based. The method, boiled down: (§1)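 Antagonist-mode assay: dye-loaded HT-29 cells, compound 30 min at r.t., then stimulated with final 8 μM SLIGKV, 3.1 U/mL trypsin, 1 U/mL thrombin or 0.6 μM UTP; calcium fluorescence read.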

In assay [2] the target is T2, PAR2 (HT-29 cells, trypsin activation) (Homo sapiens, UniProt P55085).
T2 construct: host or cells: HT-29 cells
T2 sequence (P55085 26-397): T1 sequence (P55085 26-397)
Briefly: Ca FLIPR TETRA assay, ANTAGONIST mode, stimulation with 3.1 U/mL trypsin. The settings on record: HT-29 cells, antagonist mode, stimulation with 3.1 U/mL trypsin. Type of assay: cell-based. In a few lines: as §1

The test system of assay [3] is Thrombin-stimulated Ca2+ response in HT-29 cells. The experiment in a line: Ca FLIPR TETRA assay, ANTAGONIST mode, stimulation with 1 U/mL Thrombin. Type of assay: cell-based, human. Particulars: Homo sapiens; HT-29 cells, antagonist mode, stimulation with 1 U/mL Thrombin. In a few lines:
as §1

Assay [4] concerns UTP-stimulated Ca2+ response in HT-29 cells. Briefly: Ca FLIPR TETRA assay, ANTAGONIST mode, stimulation with 0.6 μM UTP. Type of assay: cell-based, human. Particulars: Homo sapiens; HT-29 cells, antagonist mode, stimulation with 0.6 μM UTP. The method, boiled down: as §1

Turning to `CC(C)(C)c1cc(-c2ccc(Cl)c(F)c2)nn2cc(C(=O)N3CCNC(=O)C3(C)C)nc12` [Compound I-419], the IC50 (commonly the concentration at which inhibition is half-maximal) in assay [1] was 1.1 nM; in assay [2], 0.9 nM; in assay [3], over 1000 nM; in assay [4], over 1000 nM.
Take `Cc1cc(C(=O)N2CCN(C(=O)c3cn4nc(-c5ccc(F)cc5)cc(C(C)(C)F)c4n3)C(C)(C)C2)[nH]n1` [Compound I-420]: the IC50 was 1.7 nM in assay [1], 2.4 nM in assay [2], over 1000 nM in assay [3] and over 1000 nM in assay [4].
With `Cc1ccc(-c2cc(C(C)(C)C)c3nc(C(=O)N4CCN(C(=O)c5cnc(C)[nH]5)CC4(C)C)cn3n2)cc1` [Compound I-422], the IC50 in assay [1] is 1.9 nM; in assay [2], 2 nM; in assay [3] it was over 1000 nM; in assay [4], over 1000 nM.
`Cc1ncc(C(=O)N2CCN(C(=O)c3cn4nc(-c5ccc(C(F)(F)F)cc5)cc(C(C)(C)C)c4n3)C(C)(C)C2)[nH]1` [Compound I-423]: the IC50 in assay [1] was 1.7 nM; in assay [2] it was 2.2 nM; in assay [3], over 1000 nM; in assay [4], over 1000 nM.
Take `Cc1ccc(-c2cc(C(C)(C)C)c3nc(C(=O)N4CCN(C(=O)c5ccn[nH]5)CC4(C)C)cn3n2)cc1F` [Compound I-424]: the IC50 in assay [1] is 0.9 nM; in assay [2], 1.2 nM; in assay [3] it was over 1000 nM; in assay [4], over 1000 nM.
As to `Cc1ccc(-c2cc(C(C)(C)C)c3nc(C(=O)N4CCN(C(=O)c5ccccn5)CC4(C)C)cn3n2)cc1F` [Compound I-425], the IC50 was 1.5 nM in assay [1], 1.2 nM in assay [2], over 1000 nM in assay [3] and over 1000 nM in assay [4].
Turning to `Cc1ccc(-c2cc(C(C)(C)C)c3nc(C(=O)N4CCN(C(=O)c5ncccn5)CC4(C)C)cn3n2)cc1F` [Compound I-426], the IC50 in assay [1] was 1.7 nM; in assay [2] it was 1.8 nM; in assay [3], over 1000 nM; in assay [4] it was over 1000 nM.
In the case of `Cc1cc(C(=O)N2CCN(C(=O)c3cn4nc(-c5ccc(C)c(F)c5)cc(C(C)(C)C)c4n3)C(C)(C)C2)[nH]n1` [Compound I-427], the IC50 in assay [1] was 0.5 nM; in assay [2], 0.7 nM; in assay [3], over 1000 nM; in assay [4], over 1000 nM.
In the case of `CC(C)(C)c1cc(C2CCC(F)(F)CC2)nn2cc(C(=O)N3CCNC(=O)C3(C)C)nc12` [Compound I-428], the IC50 in assay [1] was 30.7 nM; in assay [2], 59.7 nM; in assay [3], over 1000 nM; in assay [4], over 1000 nM.
For `CC(C)(C)c1cc(C2CCC(F)(F)CC2)nn2cc(C(=O)N3CCN(c4c[nH]cn4)C(=O)C3(C)C)nc12` [Compound I-430], the IC50 in assay [1] is 16.3 nM; in assay [2], 23.8 nM; in assay [3], over 1000 nM; in assay [4] it was over 1000 nM.
Turning to `Cc1ncc(C(=O)N2CCN(C(=O)c3cn4nc(-c5ccc(C)c(F)c5)cc(C(C)(C)C)c4n3)C(C)(C)C2)[nH]1` [Compound I-431], the IC50 in assay [1] is 1.4 nM; in assay [2], 1.6 nM; in assay [3], over 1000 nM; in assay [4] it was over 1000 nM.
With `Cc1nnc(C(=O)N2CCN(C(=O)c3cn4nc(-c5ccc(C)c(F)c5)cc(C(C)(C)C)c4n3)C(C)(C)C2)o1` [Compound I-432], the IC50 in assay [1] was 1.9 nM; in assay [2] it was 2.1 nM; in assay [3], over 1000 nM; in assay [4], over 1000 nM.
Consider `Cc1cc(C(=O)N2CCN(C(=O)c3cn4nc(-c5ccc(F)cc5)cc(C(C)(C)C)c4n3)C(C)(C)C2)no1` [Compound I-433], for which the IC50 was 0.7 nM in assay [1], 1.1 nM in assay [2], over 1000 nM in assay [3] and over 1000 nM in assay [4].
Turning to `Cc1cc(C(=O)N2CCN(C(=O)c3cn4nc(-c5ccc(Cl)cc5)cc(C(C)(C)C)c4n3)C(C)(C)C2)[nH]n1` [Compound I-434], the IC50 was 0.5 nM in assay [1], 0.5 nM in assay [2], over 1000 nM in assay [3] and over 1000 nM in assay [4].
